System: human immortalized podocytes inducibly expressing APOL1 G2
Assay: APOL1 G2 podocyte cell rescue assay (Example B4)
Assay type: cell-based
Details: Homo sapiens, differentiated human podocytes, doxycycline-induced APOL1 G2, CellTiter-Glo; geometric mean of at least 2 runs; † = single run
Method: APOL1 G2 human immortalized podocyte viability assay for measurement of cytotoxicity reversal by compound (APOL1 G2 podocyte cell rescue assay).
Cell Handling. The hTERT-immortalized kidney podocyte cell line was procured from the laboratory of Dr. Moin Saleem at the University of Bristol, UK (Nephrology 17 (2012) 525-531; doi:10.1111/j.1440-1797.2012.01619.x; herein incorporated by reference in its entirety). Parental and engineered cell lines were cultured in RPMI 1640 media (Gibco, 11875093) with 10% Tet System Approved FBS (Takara, 631101). The engineered cell line was maintained under selection (2.5 μg/mL puromycin). Cell lines were maintained and engineered at 33° C. Cell cultures were transferred to 37° C. for 10 to 14 days to initiate differentiation (Nephrology 17 (2012) 525-531; doi:10.1111/j.1440-1797.2012.01619.x; herein incorporated by reference in its entirety). During this time, media was refreshed every 3 days. After differentiation, cells engineered to inducibly express APOL1 G2 were used in the podocyte cell rescue assay.
Cell Line Engineering. The APOL1 G2 coding sequence was cloned into the pLVX-TetOne-Puro vector and verified by sequencing (Genscript Biotech). This construct was designed to have a C-terminal HiBiT tag. Lentiviral packaging of the vector was conducted using the Lenti-X Packaging Single Shots (VSVG) system according to manufacturer instructions (Takara Bio, 631275). A stable cell line was generated by transfecting the parental podocyte cell line with the concentrated virus in media with 5 μg/mL polybrene (Sigma, TR-1003-G). Media was changed the following day. 72 hours post transfection, 2.5 μg/mL puromycin (Gibco, A1113803) was added to the cells and cells were maintained in selection media thereafter. This APOL1 G2 stable cellular pool was subjected to a stringent limiting dilution to generate a pure stable clone (Podocyte/pLVX-TetOne APOL1 G2/clone D10) capable of inducible expression of APOL1 G2.
Assay Setup. T175 flasks containing differentiated podocytes engineered to inducibly express APOL1 G2 (Podocyte/pLVX-TetOne APOL1 G2/clone D10) were washed once with 15 mL of DPBS (Thermo Fisher, 14190-144). These flasks were each trypsinized with 3 mL of prewarmed TrypLE Express (Gibco, 12605-010) and incubated at 37° C. with 5% CO2 until cells detached and neutralized with 7 mL of prewarmed assay media (RPMI 1640 media with 10% Tet System Approved FBS, no selection agent). Cells were pooled and the resulting suspension was gently mixed. The cell suspension was counted using a Countess Cell Counting Chamber (Invitrogen) and the cell concentration was adjusted to 240,000 cells/mL using assay media. Next, 25 μL of a 480 ng/mL working stock of doxycycline diluted in assay media was added to an assay ready plate. All experiments were performed in 384-well, white, solid bottom, tissue culture treated plates (Greiner, 781080). The assay ready compound plates were generated with duplicate 8-point compound dilution series that consisted of 3-fold stepwise dilutions (0.4% DMSO final). The plates were centrifuged at 1000 rpm for 1 minute. 25 μL of diluted cell suspension (final cell density=6,000 cells/well) was added to each well. The plates were centrifuged again at 1000 rpm for 1 minute and then incubated in a humidified incubator (37° C. with 5% CO2). After 95 hours, the assay plates were removed from the incubator and allowed to equilibrate to room temperature for 1 hour. CellTiter-Glo® reagent (Promega, G7570) was prepared according to the manufacturer's instructions. 25 μL of CellTiter-Glo® reagent was added to each well. Assay plates were sealed with foil and mixed for 5 minutes on an orbital shaker (500 rpm) to induce cell lysis. Plates were centrifuged at 1000 rpm for 1 minute. 10 minutes after CellTiter-Glo® reagent addition, an Envision plate reader (Perkin Elmer) was used to measure the luminescent signal of each assay plate. Collaborative Drug Discovery software was utilized for graphing data. […]

CN(c1c(F)cc(OCCN2CCC3(CC2)C(=O)Nc2ccc(Cl)cc23)cc1F)S(C)(=O)=O [Compound 127, N-[4-(2-{5-chloro-2-oxo-1,2-dihydrospiro[indole-3,4′-piperidin]-1′-yl}ethoxy)-2,6-difluorophenyl]-N-methylmethanesulfonamide]
EC50: 5.39 nM

From patent US12344610B2, “APOL1 inhibitors and methods of use” (Maze Therapeutics, Inc., priority 2022, dated 2025)
